Values of other authors in US20160243064A1, “NOVEL ORAL PHARMACEUTICAL COMPOSITIONS OF TREPROSTINIL” (Gavis Pharmaceuticals, priority 2015, published 2016).

Details: free acid, as taught by the cited US patents

oral absolute bioavailability: less than 10%
SMILES: CCCCC[C@H](O)CC[C@@H]1[C@H]2Cc3cccc(OCC(=O)O)c3C[C@H]2C[C@H]1O [treprostinil]
